We go through 87 compounds from PubChem BioAssay AID1645865 (Buhrlage Lab, Dana-Farber Cancer Institute and Novartis …, 2021).

Calls of active or inactive are those of the source.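 Rule for the calls: active = maximal inhibition of the USP30 enzyme reaching 30% or more across the dose series; inactive = the rest.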 Some results are limits rather than exact numbers.

The target of the assay is Ubiquitin carboxyl-terminal hydrolase 30 (Homo sapiens) (UniProt Q70CQ3). Kind of assay: ubiquitin-specific protease 30 DUB inhibitors, concentration-effect, biochemical, validation of primary actives (AID 1645865). As to conditions: purified USP30, Ub-rhodamine cleavage, fluorescence, 2 h.
Ubiquitin carboxyl-terminal hydrolase 30 (Homo sapiens), sequence (Q70CQ3 whole entry, looked up): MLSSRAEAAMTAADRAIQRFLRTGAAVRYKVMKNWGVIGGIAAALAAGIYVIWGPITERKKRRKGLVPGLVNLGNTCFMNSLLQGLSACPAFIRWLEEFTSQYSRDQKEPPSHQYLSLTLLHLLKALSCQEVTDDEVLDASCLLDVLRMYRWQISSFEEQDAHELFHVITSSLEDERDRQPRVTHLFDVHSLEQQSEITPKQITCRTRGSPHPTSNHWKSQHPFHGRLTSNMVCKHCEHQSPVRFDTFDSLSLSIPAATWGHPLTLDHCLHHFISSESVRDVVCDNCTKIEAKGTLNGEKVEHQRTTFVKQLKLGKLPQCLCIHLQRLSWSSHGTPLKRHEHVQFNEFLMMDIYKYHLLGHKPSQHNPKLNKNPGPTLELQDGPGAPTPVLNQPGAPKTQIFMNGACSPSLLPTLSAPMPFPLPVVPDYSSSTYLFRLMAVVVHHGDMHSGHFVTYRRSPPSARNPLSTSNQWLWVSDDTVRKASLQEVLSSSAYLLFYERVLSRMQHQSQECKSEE

In general, IC50 refers to the concentration that inhibits the measured activity by half. Turning to `CCOc1ccc(NC(=O)Cn2c(=O)n(CCCCCC(=O)NCc3ccc(F)cc3)c(=O)c3sccc32)cc1`, the IC50 was 1.44 µM.

`O=C1CC(C(=O)Nc2ccccc2F)n2nc(-c3ccccc3)cc2N1` (configuration not stated): the IC50 is 24.3 µM.

Consider `CCOc1ccc(NC(=O)Cn2c(=O)n(CCC(=O)NCc3ccco3)c(=O)c3ccccc32)cc1`, for which the IC50 is 4.08 µM.

Regarding `CSc1ccccc1C(=O)Nc1sc2c(c1C(N)=O)CCC(C)C2` (configuration not stated), the IC50 is 2.15 µM.

`O=C(CCc1ccc(S(=O)(=O)N2CCOCC2)cc1)Nc1ccc2c(c1)OCCO2`: the IC50 is > 50 µM (inactive).

Regarding `Cc1ccc2c(=O)c3c([nH]c2c1C)CCN(CC(=O)NCc1ccc2c(c1)OCO2)C3`, the IC50 is > 50 µM (inactive).

Take `CCn1c(COc2cccc(C(F)(F)F)c2)nnc1SCc1ccc(Cl)cc1`: the IC50 was 15.9 µM.

Consider `Cc1cc(NC(=O)c2nnn(-c3ccccc3Cl)c2C)no1`, for which the IC50 is > 50 µM (inactive).

As for `COc1ccc(/C=C/C(=O)Nc2cccc(S(=O)(=O)Nc3ccccc3Cl)c2)c(OC)c1`, the half-maximal inhibitory concentration (IC50) is 25.6 µM.

`CCCCNC(=O)C1Sc2nnc(-c3ccccc3)n2NC1c1ccccc1` (configuration not stated): the IC50 was 21.8 µM.

With `CCc1noc(-c2ccc(OCC(=O)Nc3ccc(C)cc3C)cc2)n1`, the half-maximal inhibitory concentration (IC50) was 29 µM.

In the case of `Cn1cc(-c2noc(Cc3cccc(C(F)(F)F)c3)n2)ccc1=O`, the IC50 was > 50 µM (inactive).

Turning to `O=C(COc1cccc(-n2cnnn2)c1)Nc1ccc2c(c1)OCCO2`, the IC50 is > 50 µM (inactive).

Take `O=C(Nc1ccc2c(c1)OCCO2)c1cc(CN2CCCC2)on1`: the IC50 is > 50 µM (inactive).

As to `Cc1nc(-c2noc3ccc(C(=O)Nc4cccnc4)cc23)cs1`, the IC50 was 14.6 µM.

Turning to `Cc1ccc(NC(=O)C2CCN(c3cncnc3N3CCCC3)CC2)cc1`, the IC50 was > 50 µM (inactive).

`O=C(Nc1cccc(Cl)c1)c1ncn2c1CNS(=O)(=O)c1ccccc1-2`: the 50% inhibitory concentration (IC50) was 12.3 µM.

In the case of `O=C(c1cc(-c2ccc(Cl)cc2)n[nH]1)N1CCN(C(=O)c2ccco2)CC1`, the concentration for half-maximal inhibition (IC50) was 31.7 µM.

As for `CN1c2ccccc2CN(CC(N)=O)CC1Cc1ccccc1` (configuration not stated), the IC50 was > 50 µM (inactive).

For `Cc1cc(=O)n(CC(=O)Nc2ccccc2F)c(Nc2ccc(F)cc2)n1`, the half-maximal inhibitory concentration (IC50) was 14.2 µM.

As to `CC(=O)CN1CC2(CCN(Cc3ccc(F)cc3)CC2)COc2ccccc2S1(=O)=O`, the IC50 is > 50 µM (inactive).

On to `Cc1cc(-c2cnc(N(C)C)nc2-c2ccc(CNC(=O)Cc3ccc(F)cc3)cc2)on1`, for which the IC50 is > 50 µM (inactive).

On to `O=C(CNc1ccc(F)c(Cl)c1)Nc1ccc2c(c1)OCCO2`, for which the IC50 is > 50 µM (inactive).

Consider `COc1ccc(CNC(=O)c2ccccc2N2C(=O)N3CCc4c([nH]c5ccccc45)[C@@]3(C)C2=O)cc1`, for which the IC50 was 27.3 µM.

With `Cc1ccc(NC(=O)c2nnn(-c3ccccc3)n2)cc1F`, the IC50 is > 50 µM (inactive).

Turning to `CCc1cc2cc3c(cc2nc1SCC(=O)Nc1cccc(C(C)=O)c1)OCO3`, the IC50 was 2.13 µM.

In the case of `COc1ccc(CC(=O)Nc2nc(-c3ccco3)c(-c3ccco3)s2)cc1`, the IC50 was > 50 µM (inactive).

For `Cc1ccc(-c2nc(-c3ccccc3)c(S(=O)(=O)CC(=O)Nc3ccc(C)c(C)c3)[nH]2)cc1`, the IC50 is > 50 µM (inactive).

Turning to `Cc1cc(CSc2ncccc2C(=O)Nc2ccnn2Cc2cccnc2)no1`, the IC50 is > 50 µM (inactive).

Turning to `Oc1ccc(-c2nc3ccc(Cl)cn3c2NC2CCCCC2)cc1`, the half-maximal inhibitory concentration (IC50) was 14.1 µM.

Consider `Cc1cccc(C(=O)OCC(=O)Nc2ccc3[nH]c(=O)[nH]c3c2)c1C`, for which the IC50 is 2.85 µM.

Regarding `c1csc(-c2nc(Nc3ccc4c(c3)CCC4)c3ccccc3n2)c1`, the half-inhibitory concentration (IC50) is 4.91 µM.

With `CCc1ccc(NC(=O)Cc2nnc(-c3ccc4ncccc4c3)o2)cc1`, the IC50 was 28.4 µM.

With `CN(C)S(=O)(=O)c1ccc(N2CCCC2)c(C(=O)Nc2ccc(-c3cn4ccsc4n3)cc2)c1`, the IC50 is > 50 µM (inactive).

On to `COc1ccc(C(=O)Nc2ccccc2C(=O)NCc2ccccc2)cc1`, for which the concentration for half-maximal inhibition (IC50) is 30.4 µM.

Take `Cc1ccc(OC(=O)c2cn(-c3ccccc3)nc2-c2cccnc2)cc1`: the IC50 is > 50 µM (inactive).

With `COc1ccc(C(=O)CSc2ccc3nnc(CCNC(=O)c4ccc(OC)cc4)n3n2)cc1`, the IC50 is > 50 µM (inactive).

On to `O=C(CCSc1ccc(Cl)cc1)c1cccs1`, for which the IC50 is 20.2 µM.

As for `Nc1c(C(=O)Nc2ccc3c(c2)OCO3)sc2nc(-c3cccnc3)ccc12`, the IC50 was 0.545 µM.

On to `O=C(COC(=O)c1ccc(Cl)cc1)Nc1ccc2[nH]c(=O)[nH]c2c1`, for which the IC50 was 3.98 µM.

For `Cc1cc(C(=O)N2CCN(C3CCN(Cc4ccc(Cl)o4)CC3)C(=O)C2)c(C)o1`, the IC50 was > 50 µM (inactive).

For `CCc1ccc(C(C)NC(=O)C2CCN(c3ccc4nncn4n3)CC2)cc1` (configuration not stated), the IC50 is > 50 µM (inactive).

For `O=C(Nc1ccccc1)c1cn(-c2cc(N3CCCC3)ncn2)cn1`, the IC50 is > 50 µM (inactive).

Turning to `Cc1ccc(CNC(=O)c2cnc3ccccc3n2)cc1`, the IC50 is > 50 µM (inactive).

Take `CCCCCCCc1cc(O)cc(O)c1`: the IC50 is 38.9 µM.

On to `CCCCc1nc2sc3c(SCC(=O)NCc4ccccc4)ncnc3c2c2c1CCC2`, for which the IC50 is > 50 µM (inactive).

Regarding `O=C(c1ccc(Cl)cc1)c1c[nH]cc1-c1c(F)cccc1Cl`, the IC50 is 19 µM.

For the compound `Cc1cc(O)c2c3c(c(O)c4c(c13)O[C@@H](C)C4(C)C)C(=O)C2=O`, the IC50 is 35.1 µM.

Consider `COc1ccccc1CNC(=O)CCCCn1c(=O)c2ccccc2n(Cc2ccccc2C#N)c1=O`, for which the 50% inhibitory concentration (IC50) was 15.1 µM.

Turning to `COc1ccc(C(=O)NCCc2nnc3ccc(SCC(=O)NCc4ccc(F)cc4)nn23)cc1`, the half-inhibitory concentration (IC50) is 15.8 µM.

On to `COc1ccccc1NC(=O)Cn1cc(C(=O)c2ccc(C)cc2)c(=O)c2ccccc21`, for which the half-inhibitory concentration (IC50) was 22.9 µM.

Consider `COc1cc(N)c(Cl)cc1C(=O)OCC(=O)c1ccc2c(c1)OCCO2`, for which the IC50 is > 50 µM (inactive).

With `Cc1cccc(NC(=O)Nc2nnc(CC(=O)NCc3ccccc3)s2)c1`, the IC50 was 6.01 µM.

On to `C=C(NC(=O)C(=C)NC(=O)c1csc(-c2ccc3c(n2)-c2csc(n2)-c2csc(n2)C(C(C)C2CO2)NC(=O)C(Cc2ccc(O)cc2)NC(=O)c2csc(n2)C(C(O)c2ccccc2)NC(=O)c2nc(sc2C)C(CC(N)=O)NC(=O)c2csc-3n2)n1)C(=O)O` (configuration not stated), for which the IC50 is > 50 µM (inactive).

Regarding `Cn1c(=O)c2c(ncn2CC(=O)NC2CCCc3ccccc32)n(C)c1=O` (configuration not stated), the IC50 is > 50 µM (inactive).

Regarding `Cc1cccc(NC(=O)CSc2ccc(-n3cnc(-c4ccccc4)c3)nn2)c1`, the concentration for half-maximal inhibition (IC50) is 1.95 µM.

In the case of `CC(=O)c1ccc(N2C(=O)N(Cc3cccc([N+](=O)[O-])c3)c3ccccc3S2(=O)=O)cc1`, the IC50 was > 50 µM (inactive).

On to `CC1=C2C(=NCCN1)C(=O)N(c1ccccc1)C2c1cccnc1` (configuration not stated), for which the IC50 was > 50 µM (inactive).

As for `COc1cc(=O)c(C(=O)Nc2ccc(C#N)cc2)nn1-c1cccc(F)c1`, the IC50 is 25.4 µM.

In the case of `CC1OC2CC(O)C1(O)C1=C2C(O)=C(C(N)=O)C(=N)C1=O` (configuration not stated), the IC50 was > 50 µM (inactive).

As for `COc1ccc(C(=O)Nc2cc(-c3ccccn3)no2)cn1`, the IC50 was > 50 µM (inactive).

`Cn1c(C(=O)NCc2ccccn2)cc2c(=O)[nH]c3ccccc3c21`: the IC50 was > 50 µM (inactive).

Take `Cc1nc(NCc2ccccn2)c2cc(-c3ccccc3)sc2n1`: the IC50 was 25.6 µM.

In the case of `CCOc1ccc(S(=O)(=O)Nc2ccc[nH]c2=O)cc1`, the IC50 is > 50 µM (inactive).

Consider `Cc1ccc(NCc2cc3c(C(C)(C)C)nn(-c4ccc(Cl)cc4)c3[nH]c2=O)cc1`, for which the IC50 is > 50 µM (inactive).

In the case of `O=C(NCCN1CCCC1)C1CCN(c2cnc(N3CCCCC3)nc2)CC1`, the IC50 is > 50 µM (inactive).

For `COc1cc(OC)cc(C(=O)Nc2cnc(-c3ccccc3)nc2)c1`, the IC50 was > 50 µM (inactive).

`Cc1cc(NCC2CC2)n2nc(Nc3cc(Cl)ccc3C)nc2n1`: the half-maximal inhibitory concentration (IC50) is 23.6 µM.

Consider `COc1cccc(NC(=O)Cc2sc(Nc3cc(C)cc(C)c3)nc2O)c1`, for which the IC50 was 23 µM.

Take `CC1CCN(c2cc(-n3cnc(C(=O)N4CCCCC4)c3)ncn2)CC1`: the IC50 was > 50 µM (inactive).

For `Cc1c(C(=O)c2ccccc2)c2ccccn2c1CCc1ccccn1`, the IC50 was > 50 µM (inactive).

As to `CC(=O)c1cccc(NC(=O)c2ccc3[nH]c4c(c3c2)CC(C)CC4)c1` (configuration not stated), the IC50 was > 50 µM (inactive).

As to `Cc1ccccc1-c1noc(-c2ccccc2OCC(=O)NC(C)C)n1`, the IC50 is > 50 µM (inactive).

Take `COc1ccc(-n2c(=O)c(CCC(=O)O)nc3ccccc32)cc1`: the IC50 was > 50 µM (inactive).

As to `COc1ccccc1-c1ccc(SCC(=O)Nc2ccc3c(c2)OCCO3)nn1`, the IC50 was > 50 µM (inactive).

With `CCC1OC(O)(C(C)C(O)C(C)C2OC(=O)/C(C)=C/C(C)=CC(C)C(O)C(C)C/C(C)=C/C=C/C2OC)CC(OC(=O)/C=C/C(=O)NC2=C(O)CCC2=O)C1C` (configuration not stated), the IC50 is > 50 µM (inactive).

`Cc1cc(C)c2c(-n3cccc3)c(C(=O)NCCc3ccc(S(N)(=O)=O)cc3)sc2n1`: the IC50 is > 50 µM (inactive).

For `COc1ccc(NC(=O)CN2CCN(c3ccc(C(C)=O)cc3)CC2)cc1S(=O)(=O)N1CCCCC1`, the IC50 is 36.4 µM.

Turning to `O=C(Nc1ccc2c(c1)OCCO2)C1CCN(C(=O)c2ccccc2)CC1`, the IC50 was > 50 µM (inactive).

`Cc1cc(C2CC(=O)Nc3c2c(C)nn3-c2nc3ccccc3[nH]2)c(C)s1` (configuration not stated): the 50% inhibitory concentration (IC50) is 26.5 µM.

For the compound `Cc1noc(-c2ccc(N3CCCC(C(=O)NCc4ccc(F)cc4)C3)nc2)n1` (configuration not stated), the 50% inhibitory concentration (IC50) was 14.6 µM.

`Cc1sc(NC(=O)/C=C/c2ccco2)nc1-c1ccccc1`: the IC50 is > 50 µM (inactive).

`COc1ccc(NC(=O)c2nnc(C(=O)NCCN3CCCCCC3)s2)cc1`: the IC50 is 5.34 µM.

On to `Cc1c(-c2ccc(C#N)cc2)oc2ccc(Br)cc2c1=O`, for which the IC50 was 2.57 µM.

As to `O=C(Nc1ccc2c(c1)OCO2)c1[nH]nc2c1CCc1ccccc1-2`, the IC50 was > 50 µM (inactive).

For `Cc1ccc(-n2cc(C(=O)NCc3cccnc3)nn2)cc1C`, the IC50 is 21.6 µM.

Take `O=C(Nc1ccc(-c2cn3ccccc3n2)cc1)C1C=C2C=C(Br)C=CC2OC1=O` (configuration not stated): the IC50 was 0.337 µM.
